Results published in ChEMBL document CHEMBL4190316, “Synthesis and biological evaluation of 4-biphenylamino-5-halo-2(5H)-furanones as potential anticancer agents” (Eur J Med Chem, 2017).
pIC50: −log10 of the molar value.

Tests used:
C6 = assay: Cytotoxicity against rat C6 cells assessed as reduction in cell viability after 72 hrs by MTT assay; type: functional, cell-based; conditions: C6, 72 h
HaCaT = assay: Cytotoxicity against human HaCaT cells assessed as reduction in cell viability after 72 hrs by MTT assay; type: cell-based
CNE = assay: Cytotoxicity against human CNE1 cells assessed as reduction in cell viability after 72 hrs by MTT assay; type: functional, cell-based
[1] = Cytotoxicity against human NCI-EC1 cells assessed as reduction in cell viability after 72 hrs by MTT assay; type: functional, cell-based
MDA-MB-231 = assay: Cytotoxicity against human MDA-MB-231 cells assessed as reduction in cell viability after 72 hrs by MTT assay; type: functional, cell-based; conditions: MDA-MB-231, 72 h
MCF7 = assay: Cytotoxicity against human MCF7 cells assessed as reduction in cell viability after 72 hrs by MTT assay; type: functional, cell-based; conditions: MCF7, 72 h
HepG2 = assay: Cytotoxicity against human HepG2 cells assessed as reduction in cell viability after 72 hrs by MTT assay; type: functional, cell-based; conditions: HepG2, 72 h
[2] = Octanol-water partition coefficient, log P of the compound at 10 mM after 24 hrs by UV-vis spectroscopic method; type: physicochemical

| logP at 24 h, 10000 µM [2] | SMILES | pIC50 (C6) | pIC50 (HaCaT) | pIC50 (CNE) | pIC50 [1] | pIC50 (MDA-MB-231) | pIC50 (MCF7) | pIC50 (HepG2) |
| --- | --- | --- | --- | --- | --- | --- | --- | --- |
| 1.46 | COC1OC(=O)C(Br)=C1Nc1ccc(-c2ccc(N)cc2)cc1 (stereo not given) | 4.19 | 4.16 | 4.16 | < 4.00 | < 4.00 | 4.22 | 4.08 |
| 1.5 | COC1OC(=O)C(Cl)=C1Nc1ccc(-c2ccccc2)cc1 (stereo not given) | 4.44 | 4.39 | 4.27 | 4.49 | 4.18 | 4.39 | 4.45 |
| 1.58 | CCOC1OC(=O)C(Br)=C1Nc1ccc(-c2ccc(N)cc2)cc1 (stereo not given) | 4.24 | 4.15 | 4.05 | 4.08 | 4.31 | 4.24 | 4.25 |
| 0.913 | COC1OC(=O)C(Cl)=C1Nc1ccc(-c2ccc(N)cc2)cc1 (stereo not given) | 4.19 | < 4.00 | < 4.00 | < 4.00 | < 4.00 | < 4.00 | < 4.00 |
| 1.74 | CCOC1OC(=O)C(Br)=C1Nc1ccc(-c2ccccc2)cc1 (stereo not given) | 4.56 | 4.29 | 4.38 | 4.26 | 4.15 | 4.33 | 4.46 |
